Measured values as given in patent US8063099B2, “Trans-3-aza-bicyclo[3.1.0]hexane derivatives” (Actelion Pharmaceuticals Ltd., priority 2007, dated 2011).
Like-named read-outs stand apart in the source and are kept apart here.

How the values were obtained:
human orexin-2 receptor = target: T1, human orexin-2 receptor (Homo sapiens, UniProt O43614); test: Intracellular calcium measurements (FLIPR), orexin receptor antagonistic activity; format: cell-based; settings: FLIPR Tetra, CHO cells expressing human orexin-2 receptor, 3 nM orexin-A, read-out: OX2 IC50
T1 construct: expressed in transfected cells; host or cells: Chinese hamster ovary (CHO) cells, G418 selection
T1 sequence (O43614 1-444): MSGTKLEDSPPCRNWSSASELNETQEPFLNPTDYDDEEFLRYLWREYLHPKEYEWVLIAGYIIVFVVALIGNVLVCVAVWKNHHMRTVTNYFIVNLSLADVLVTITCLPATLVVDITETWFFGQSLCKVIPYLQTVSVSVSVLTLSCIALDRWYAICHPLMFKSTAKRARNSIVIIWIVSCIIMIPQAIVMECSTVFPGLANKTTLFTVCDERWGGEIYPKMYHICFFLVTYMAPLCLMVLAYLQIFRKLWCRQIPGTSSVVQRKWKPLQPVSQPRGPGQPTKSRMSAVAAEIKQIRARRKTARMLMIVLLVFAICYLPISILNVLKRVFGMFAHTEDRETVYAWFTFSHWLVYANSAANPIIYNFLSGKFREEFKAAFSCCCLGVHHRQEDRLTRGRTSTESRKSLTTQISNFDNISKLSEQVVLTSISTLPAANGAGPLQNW
Method: (§1) The orexin receptor antagonistic activity of the compounds of formula (I) is determined in accordance with one of the following experimental methods.
(§2) Intracellular Calcium Measurements:
(§3) Chinese hamster ovary (CHO) cells expressing the human orexin-1 receptor and the human orexin-2 receptor, respectively, are grown in culture medium (Ham F-12 with L-Glutamine) containing 300 μg/ml G418, 100 U/ml penicillin, 100 μg/ml streptomycin and 10% heat inactivated fetal calf serum (FCS). The cells are seeded at 20'000 cells/well into 384-well black clear bottom sterile plates (Greiner). The seeded plates are incubated overnight at 37° C. in 5% CO2.
(§4) Human orexin-A as an agonist is prepared as 1 mM stock solution in MeOH:water (1:1), diluted in HBSS containing 0.1% bovine serum albumin (BSA), NaHCO3:0.375 g/l and 20 mM HEPES for use in the assay at a final concentration of 3 nM.
(§5) Antagonists are prepared as 10 mM stock solution in DMSO, then diluted in 384-well plates, first in DMSO, then in HBSS containing 0.1% bovine serum albumin (BSA), NaHCO3: 0.375 g/l and 20 mM HEPES.
(§6) On the day of the assay, 50 μl of staining buffer (HBSS containing 1% FCS, 20 mM HEPES, NaHCO3: 0.375 g/l, 5 mM probenecid (Sigma) and 3 μM of the fluorescent calcium indicator fluo-4 AM (1 mM stock solution in DMSO, containing 10% pluronic) is added to each well.
(§7) The 384-well cell-plates are incubated for 50 min at 37° C. in 5% CO2 followed by equilibration at RT for 30-120 min before measurement.
(§8) Within the Fluorescent Imaging Plate Reader (FLIPR2 or FLIPR Tetra, Molecular Devices), antagonists are added to the plate in a volume of 10 μl/well, incubated for 10 min and finally 10 μl/well of agonist is added. Fluorescence is measured for each well at 1 second intervals, and the height of each fluorescence peak is compared to the height of the fluorescence peak induced by 3 nM orexin-A with vehicle in place of antagonist. For each antagonist, the IC50 value (the concentration of compound needed to inhibit 50% of the agonistic response) is determined. With the FLIPR Tetra, non-optimized and optimized conditions were used. Optimized conditions were achieved by adjustment of pipetting speed and cell splitting regime. The calculated IC50 values of the compounds may fluctuate depending on the daily cellular assay performance. Fluctuations of this kind are known to those skilled in the art.

human orexin-1 receptor = target: T2, human orexin-1 receptor (Homo sapiens, UniProt O43613); test: as above; format: cell-based; settings: FLIPR Tetra, CHO cells expressing human orexin-1 receptor, 3 nM orexin-A, read-out: OX1 IC50
T2 construct: expressed in transfected cells; host or cells: Chinese hamster ovary (CHO) cells, G418 selection
T2 sequence (O43613 1-425): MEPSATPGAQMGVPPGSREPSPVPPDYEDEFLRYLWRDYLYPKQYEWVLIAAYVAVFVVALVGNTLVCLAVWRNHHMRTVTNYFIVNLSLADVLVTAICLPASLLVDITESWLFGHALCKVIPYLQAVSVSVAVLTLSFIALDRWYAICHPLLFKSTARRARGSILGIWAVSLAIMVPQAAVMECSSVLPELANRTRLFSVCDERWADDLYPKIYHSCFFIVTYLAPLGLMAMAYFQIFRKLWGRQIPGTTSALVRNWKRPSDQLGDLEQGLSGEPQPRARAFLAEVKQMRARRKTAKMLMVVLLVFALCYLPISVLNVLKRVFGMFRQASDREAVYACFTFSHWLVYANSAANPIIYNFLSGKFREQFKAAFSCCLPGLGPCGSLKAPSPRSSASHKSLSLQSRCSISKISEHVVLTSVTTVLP
Method: as §1, §2, §3, §4, §5, §6, §7, §8

| Compound | IC50 (human orexin-2 receptor; non-optimized conditions) | IC50 (human orexin-1 receptor; non-optimized conditions) | IC50 (human orexin-2 receptor; optimized conditions) | IC50 (human orexin-1 receptor; optimized conditions) |
| --- | --- | --- | --- | --- |
| Cc1nc(C(=O)N2C[C@@H]3C[C@@H]3[C@H]2CNc2ncc(Br)cn2)c(-c2ccc(C)c(F)c2)s1 [Example 252, {(1S,2S,5R)-2-[(5-Bromo-pyrimidin-2-ylamino)-methyl]-3-aza-bicyclo[3.1.0]hex-3-yl}-[5-(3-fluoro-4-methyl-phenyl)-2-methyl-thiazol-4-yl]-methanone] | 350 nM | 79 nM |  |  |
| Cc1cccc(-c2sc(C)nc2C(=O)N2C[C@@H]3C[C@@H]3[C@H]2CNC(=O)c2cccc3nc(C)oc23)c1 [Example 256, 2-Methyl-benzoxazole-7-carboxylic acid [(1S,2S,5R)-3-(2-methyl-5-m-tolyl-thiazole-4-carbonyl)-3-aza-bicyclo[3.1.0]hex-2-ylmethyl]-amide] |  |  | 55 nM | 64 nM |
| Cc1cccc(-c2sc(C)nc2C(=O)N2C[C@@H]3C[C@@H]3[C@H]2CNC(=O)c2ccn3ccsc23)c1 [Example 260, Pyrrolo[2,1-b]thiazole-7-carboxylic acid [(1S,2S,5R)-3-(2-methyl-5-m-tolyl-thiazole-4-carbonyl)-3-aza-bicyclo[3.1.0]hex-2-ylmethyl]-amide] |  |  | 31 nM | 16 nM |
| Cc1ccc(-c2sccc2C(=O)N2C[C@@H]3C[C@@H]3[C@H]2CNC(=O)c2cccc3c2NCCO3)cc1 [Example 266, 3,4-Dihydro-2H-benzo[1,4]oxazine-5-carboxylic acid [(1S,2S,5R)-3-(2-p-tolyl-thiophene-3-carbonyl)-3-aza-bicyclo[3.1.0]hex-2-ylmethyl]-amide] |  |  | 19 nM | 65 nM |

More lines, now with the values ahead:

| IC50 (human orexin-2 receptor; non-optimized conditions) | IC50 (human orexin-1 receptor; non-optimized conditions) | IC50 (human orexin-2 receptor; optimized conditions) | IC50 (human orexin-1 receptor; optimized conditions) | Compound |
| --- | --- | --- | --- | --- |
|  |  | 55 nM | 58 nM | Cc1ccc(-c2sccc2C(=O)N2C[C@@H]3C[C@@H]3[C@H]2CNC(=O)c2cccc3nsnc23)cc1 [Example 274, Benzo[2,1,3]thiadiazole-4-carboxylic acid [(1S,2S,5R)-3-(2-p-tolyl-thiophene-3-carbonyl)-3-aza-bicyclo[3.1.0]hex-2-ylmethyl]-amide] |
|  |  | 32 nM | 117 nM | Cc1cccc(-c2sccc2C(=O)N2C[C@@H]3C[C@@H]3[C@H]2CNC(=O)c2cc3occc3n2C)c1 [Example 282, 4-Methyl-4H-furo[3,2-b]pyrrole-5-carboxylic acid [(1S,2S,5R)-3-(2-m-tolyl-thiophene-3-carbonyl)-3-aza-bicyclo[3.1.0]hex-2-ylmethyl]-amide] |
|  |  | 16 nM | 83 nM | Cc1cccc(-c2sccc2C(=O)N2C[C@@H]3C[C@@H]3[C@H]2CNC(=O)c2cccc3oc(C)nc23)c1 [Example 297, 2-Methyl-benzoxazole-4-carboxylic acid [(1S,2S,5R)-3-(2-m-tolyl-thiophene-3-carbonyl)-3-aza-bicyclo[3.1.0]hex-2-ylmethyl]-amide] |
|  |  | 14 nM | 28 nM | Cc1cccc(-c2sc(C)nc2C(=O)N2C[C@@H]3C[C@@H]3[C@H]2CNC(=O)c2cccc3sc(Cl)nc23)c1 [Example 299, 2-Chloro-benzothiazole-4-carboxylic Acid[(1S,2S,5R)-3-(2-methyl-5-m-tolyl-thiazole-4-carbonyl)-3-aza-bicyclo[3.1.0]hex-2-ylmethyl]-amide] |
